Test results published in US10016409B2, “Method for improving interstitial flow” (priority 2012, dated 2018).
Where “and” joins values, the source holds several entries; their conditions need not be identical. Equal entries are not always repeated.

Legend:
[1] = tested on: Tg-SwDI mice; assay: Cerebrovascular diameter increase under acetylcholine administration to the brain surface; type: in vivo; settings: acetylcholine 100 μM perfused, vs ordinary feed
Description: In the brain interstitial flow in a central nervous system, vascular wall motion due to artery vascular pulsation serves as a driving force so that harmful proteins are excreted. Dilation of artery in vascular pulsation occurs when the blood pressure in artery increases due to pulsation of heart. A decrease in dilation ability of artery attenuates vascular wall motion, and reduces the interstitial flow accordingly. In the presence of aged mice and cerebral amyloid angiopathy, vascular elasticity (flexibility) of cerebral artery considerably decreases, and vascular wall motion attenuates. Thus, the ability of excretion of harmful proteins deteriorates. In this study, the influence of cilostazol administration on vascular elasticity ability under acetylcholine administration was examined.
It is known that acetylcholine has the physiological action of improving vascular elasticity. […]
In a manner similar to section (1) regarding vascular elasticity enhancement by cilostazol discussed above, model mice (Tg-SwDI mice) (Davis et al, 2004) showing pathological changes, especially cerebral amyloid angiopathy, were used. […] Cerebral blood vessels were visualized with FITC-dextran, and the rate of change in vessel diameter from a time before administration to 3 minutes after the start of administration was analyzed. […]

[2] = tested on: Tg-SwDI mice; assay: Drainage of injected fluorescent label Aβ1-40 through perivascular interstitial fluid pathway; type: in vivo; settings: single images FIGS. 8 to 10, 30 minutes after injection into striate, cilostazol-containing feed group
Description: To verify interstitial flow improvement by cilostazol, harmful protein drainage facilitation by cilostazol was examined by using a cerebral amyloid angiopathy model. Totally unlike a drainage system through a specific receptor or antigen-antibody reaction, drainage of harmful proteins through the interstitial flow is a general drainage system irrespective of the type and amount of proteins, and Aβ in these examples is merely an example of intracerebral harmful proteins for which the interstitial flow is improved so that drainage is facilitated.
After 15 months from the start of breeding, with respect to Tg-SwDI mice (n=4) of a group administered with cilostazol-containing feed for 13.5 months and Tg-SwDI mice (n=3) of the ordinary feed administered group, Tg-SwDI mice were placed at the prone position under inhalation anesthesia using 1.5% isoflurane, midline incision of scalp was performed, and then, by using a 32 G micropipet, such that a fluorescent label Aβ1-40 was injected for 30 seconds in the manner of stereotaxy into the striate of Tg-SwDI mice (a front part of 0.98 mm and a side part of 1.5 mm in bregma) as indicated by the arrow in FIG. 7. The depth from the brain surface to the injection site of the striate was 3.0 mm, and the fluorescent label Aβ1-40 was purchased from AnaSpec (San Jose, Calif., USA). […]

[3] = tested on: MCI patients; assay: Retrospective clinical survey, MMSE change in patients with first MMSE score 22 to 26 (MCI), no anti-dementia drugs; type: in vivo, human
Description: Harmful proteins such as tau protein, α-synuclein protein, amyloid β protein, and ubiquitinated protein, which cause disorders in nerve function, are gradually accumulated in the brain with age. Irrespective of the type of accumulated harmful proteins, mild disorders in cognitive function is observed in an initial stage. However, in this stage, irreversible neuron degeneration in cranial nerve tissues has been seldom observed yet. Thus, activation of the interstitial flow, which is one of major drainage pathways of harmful proteins, might cure mild disorders of cognitive function. To examine this hypothesis, it was evaluated how consecutive oral administration of cilostazol affects cognitive functions of patients having MMSE scores greater than or equal to 22 and less than or equal to 26 and suspected to have mild deterioration of cognitive function.
A survey was conducted on consecutive cases (3183 cases in total) between 1996 and 2012 whose records of cilostazol administration exist, and examination using all the cases that match the following conditions was carried out. In this examination, to eliminate the influence of anti-dementia drugs, all the patients administered with anti-dementia drugs such as donepezil were removed from the analysis.
(i) The mini mental state exam (MMSE), which is a typical test of cognitive function, was performed twice or more with an interval of 6 months or more a case where the MMSE was performed three or more times, two examination results of the first examination and the last examination were selected);
(ii) The first MMSE score was greater than or equal to 22 and less than or equal to 26;
(iii) A case in which cilostazol was administered in a period at least more than a half of an MMSE observation period was selected as a group (hereinafter referred to as a treated group) subjected to consecutive treatment; and
(iv) A case in which cilostazol was administered in two months or less in the MMSE observation period was selected as a group (hereinafter referred to as an untreated group) not subjected to consecutive treatment.
(i) The rate of change in MMSE scores in each group (calculation method: [last MMSE score−first MMSE score]/MMSE observation period [years]); and
(ii) The rate of change in scores in each item of the MMSE test in each group (calculation method: [score of last MMSE test item−score of first MMSE test item]/MMSE observation period [years]).
In comparison between the two groups, statistical analysis was conducted such that the rate difference was obtained by using a chi-square test and other items were obtained by using a t test.

## O=C1CCc2cc(OCCCCc3nnnn3C3CCCCC3)ccc2N1 [cilostazol, 6-[4-(1-cyclohexyl-1H-tetrazole-5-yl)butoxy]3,4-dihydrocarbostyril]
[1]; cilostazol-containing feed for 8 months, age 12 months, FIG. 23
  relative increase in cerebrovascular diameter under acetylcholine administration: dilated
[1]; cilostazol-containing feed for 13.5 months, age 15 months, FIG. 24
  relative increase in cerebrovascular diameter under acetylcholine administration: dilated
[2]
  distance of fluorescent label Aβ1-40 accumulation site of a leptomeninges vessel from the injection site: 2922 μm and 3422 μm and 3507 μm
[3]; MCI patients, as described in Example (4)
  increase in MMSE scores (treated vs untreated group): about 4
[3]; MCI treated group (31 cases), first MMSE 22-26, average±standard error, P=0.007 vs untreated
  rate of change in MMSE score: 0.4±0.7 per year
[3]; MCI treated group, score change/observation period [years], P=0.004 vs untreated
  rate of change in MMSE item 5 of delayed recall: 0.16±0.13
[3]; MCI treated group, score change/observation period [years], P=0.008 vs untreated
  rate of change in MMSE item 9 of command with sentence: 0.01±0.06
[3]; MCI treated group, score change/observation period [years], P=0.02 vs untreated
  rate of change in MMSE item 11 of visual configuration: 0.03±0.08
[3]; MCI treated group, score change/observation period [years], P=0.03 vs untreated
  rate of change in MMSE item 1 of orientation to time: −0.13±0.16
[3]; untreated group of MCI survey
  side effects leading to no consecutive cilostazol treatment: side effects such as diarrhea and headaches
